Measurements taken from patent publication US20240308985A1 (Psy Therapeutics, Inc., priority 2021, published 2024).
Where two headings read alike, the source gives them in different places.

Experiments:
[1] = Pharmacokinetic study of compounds in mice (brain exposure); assay type: in vivo, male C57BL/6 mice; settings: oral
Procedure: Healthy male C57BL/6 mice (8-12 weeks old) weighing between 17 to 35 g were procured from Global, India. Temperature and humidity were maintained at 22±f3° C. and 30-70%, respectively and illumination was controlled to give a sequence of 12 hr light and 12 hr dark cycle. Temperature and humidity were recorded by auto-controlled data logger system. All the animals were provided laboratory rodent diet. Reverse osmosis water treated with ultraviolet light was provided ad libitum.
Protocol A: Twenty-four male mice were divided into two groups as; Group 1: 30 mg/kg/IP; Plasma and brain; Number of animals=12: Animal #1-12. Group 2: 30 mg/kg/PO; Plasma and brain; Number of animals=12; Animal #13-24. Animals in Group 1 were administered intraperitoneally with solution formulation of PSY-05-00074-001 in 5% NMP, 5% Solutol HS-15 and 90% normal saline at 30 mg/kg dose. Animals in Group 2 were administered orally with solution formulation of PSY-05-00074-001 in 5% NMP, 5% Solutol HS-15 and 90% normal saline at 30 mg/kg dose. Blood samples (approximately 60 μL) were collected under light isoflurane anesthesia from retro orbital plexus at 0.25, 0.5, 1, 2, 4 and 8 hr (IP and PO). Plasma samples were separated by centrifugation of whole blood and stored below −70° C. until bioanalysis. Immediately after collection of blood from intraperitoneal and oral group animals, animals were euthanized with excess CO2 and brain samples were collected from set of two mice at each time point. Brain samples were divided into two parts. Half brain samples were homogenized using ice-cold phosphate buffer saline (pH—7.4) and homogenates were stored below −70±10° C. until analysis. Total homogenate volume was three times the brain weight. Other part of brain was stored below −70±10° C. for further analysis. All samples were processed for analysis by protein precipitation using acetonitrile and analyzed with fit-for-purpose LC/MS/MS method (LLOQ—2.02 ng/mL for plasma and 6.06 ng/g for brain). Pharmacokinetic parameters were calculated using the non-compartmental analysis tool of Phoenix WinNonlin®.
Protocol B: Thirty six mice were included into the study and divided in to three groups as Group 1 (n=12), Group 2 (n=12) and Group 3 (n=12) with n=2 mice per time-point design. Animals in Group 1 were administered intravenously with solution formulation of PSY-05-00414-001 at 5 mg/kg dose. Animals in Group 2 were administered orally with solution formulation of PSY-05-00414-001 at a dose of 5 mg/kg. Animals in Group 3 were administered intraperitoneally with solution formulation of PSY-05-00414-001 at 5 mg/kg dose. The formulation vehicle for all the three groups was 5% NMP, 5% Solutol HS-15 and 90% normal saline. Blood samples (approximately 60 μL) were collected under light isoflurane anesthesia from two mice at 0.25, 0.5, 1, 2, 4 and 8 h. Plasma was harvested by centrifugation of blood and stored at −70±10° C. until analysis. After blood collection, brain was perfused and isolated at 0.25, 0.5, 1, 2, 4 and 8 h. Brain samples were dipped thrice in ice-cold phosphate buffer saline, blotted dry and cut in to two equal portion. Half-brain samples from each time-point were weighed and homogenized using ice-cold phosphate buffer saline with twice volume of brain weight making the total homogenate three volumes and stored below −70±10° C. until analysis. Remaining half-portions of brain samples was snap freeze and kept in −70±10° C. until further confirmation from client. Plasma and brain samples were quantified by fit-for-purpose LC-MS/MS method (LLOQ: 1.01 ng/mL for plasma and 2.02 ng/mL for brain).
Protocol C: Fifty four male mice were included in study and divided in to three groups as Group 1 (n=18), Group 2 (n=18) and Group 3 (n=18) with 3 mice/time point design. Animals from Group 1, Group 2 and Group 3 were administered by intravenous, oral and intraperitoneal route with solution formulation of PSY-05-00451-001 at 5 mg/kg dose, respectively. […]

[2] = molecular target: Monoacylglycerol Lipase (MAGL) (Homo sapiens (Human), UniProt Q99685); assay: MAGL inhibition potency (IC50) assay with 4NPA substrate; assay type: biochemical
[3] = molecular target: MAGL enzyme (Homo sapiens (Human), UniProt Q99685); assay: MAGL reversible inhibition assay (washout); assay type: biochemical; set-up: B: % MAGL activity returning after washout: concentration or dose not given beside the values; settings: for A: degree to which MAGL enzymatic activity returned following washout of test compounds: pre-washout compound concentration 1 μM; for B: % MAGL activity returning after washout: relative to control (no inhibitor before washout), immediately following a 30 minute washout
Procedure: The reversible mechanism of MAGL inhibition of a test compound of Formula (I) can be determined. Flag-tagged MAGL enzyme will be immobilized on anti-Flag beads. Immobilized enzyme will be incubated +/− inhibitor at a dose that produces complete inhibition. Colorimetric substrate (4-NPA) will be added and the reaction monitored on a plate reader for 30 minutes to verify complete inhibition. Immobilized enzyme will then be washed thoroughly to remove the inhibitor, and fresh substrate will be added. The reaction will be monitored for an additional 30 minutes; returning enzymatic activity will indicate reversibility of inhibition.
MAGL enzyme was incubated for 30 minutes in the presence of 40× the IC50 concentration of inhibitor. Enzyme+inhibitor mix was then diluted 40-fold so that the final concentration of the inhibitor equaled the IC50 concentration. Substrate was added and the reaction was monitored for 30 minutes.

[4] = molecular target: human recombinant FAAH (Homo sapiens (Human), UniProt O00519); assay: FAAH inhibition potency counter screen (IC50); assay type: biochemical
Procedure: Comparative compound potency at FAAH can be obtained with the following assay.
MAGL inhibitor compounds were also counter-screened for FAAH inhibition potency using the following assay. Assessment of FAAH inhibition was performed using Fatty Acid Amide Hydrolase Inhibitor Screening Assay Kit (Cayman Item No. 10005196) following manufacture's instruction with some modifications. The kit utilizes human recombinant FAAH and the fluorescent substrate, AMC Arachidonoyl amide (AAMCA). 5 μL of assay buffer (125 mM Tris, pH 9.0, 1 mM EDTA, i.e. ethylenediaminetetraacetic acid) was added to a 384-well black plate (Corning, 3573). Test compounds and control inhibitor JZL-195 (Cayman Chemical, 13668) were tested in 10-concentration IC50 mode with 3-fold serial dilution at a starting concentration of 100 μM and 10 μM, respectively. 300 nL or 30 nL of test compounds were delivered into a 384-well black plate (Corning, 3573) using a Labcyte Echo, followed by addition of 15 μL of FAAH enzyme (Cayman, 700302) in assay buffer. After a 5-minute pre-incubation at room temperature, 10 μL of AAMCA was added in assay buffer to start the reaction. Final concentration of FAAH enzyme is not specified and AAMCA substrate was used at the 20 uM. After these dilutions, the final concentration of the test compounds ranged from 100 μM to 5.08 nM or 10 μM down to 0.508 nM. The reaction was allowed to progress for 60 minutes, while the plate was read on an Envision plate reader at an Ex/Em of 350/460 nm with readings every minute. The data was analyzed in Microsoft Excel, using the slope between 30 and 59 minutes. The average of the no-enzyme wells (background) was subtracted from the data. The background-subtracted slope data was converted to % activity using the average of wells with enzyme and DMSO vehicle. IC50 values were calculated using GraphPad software (Sigmoidal dose response, variable slope equation).
Compounds listed in Table D2 were tested in the FAAH Counterscreen of Example 23

[5] = Method 12: Reaction Biology MAGL enzyme, 15 nM, read-out: MAGL Potency (Detection Method)
[6] = Method A: starting concentration of 100 μM
[7] = Method 2: Cayman Chemical MAGL enzyme, 10 nM, read-out: MAGL Potency (Detection Method)
[8] = Method B: starting concentration of 10 μM

MAGL enzyme, sequence (Q99685 whole entry): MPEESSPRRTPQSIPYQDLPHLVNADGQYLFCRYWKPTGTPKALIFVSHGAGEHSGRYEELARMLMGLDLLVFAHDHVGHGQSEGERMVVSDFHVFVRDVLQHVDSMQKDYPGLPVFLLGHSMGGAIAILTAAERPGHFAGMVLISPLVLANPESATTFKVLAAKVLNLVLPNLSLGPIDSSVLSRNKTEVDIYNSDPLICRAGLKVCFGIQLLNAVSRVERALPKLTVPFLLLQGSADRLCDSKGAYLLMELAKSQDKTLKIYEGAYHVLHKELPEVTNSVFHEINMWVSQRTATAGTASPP
Monoacylglycerol Lipase (MAGL), sequence (Q99685 2-303): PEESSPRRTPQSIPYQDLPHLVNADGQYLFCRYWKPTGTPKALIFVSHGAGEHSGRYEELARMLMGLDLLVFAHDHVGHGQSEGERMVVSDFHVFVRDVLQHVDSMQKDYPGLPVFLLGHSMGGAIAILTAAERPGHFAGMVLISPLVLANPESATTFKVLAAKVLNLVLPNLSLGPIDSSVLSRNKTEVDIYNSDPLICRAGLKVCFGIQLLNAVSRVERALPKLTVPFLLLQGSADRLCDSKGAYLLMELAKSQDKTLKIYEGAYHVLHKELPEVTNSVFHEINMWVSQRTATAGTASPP
human recombinant FAAH, sequence (O00519 whole entry): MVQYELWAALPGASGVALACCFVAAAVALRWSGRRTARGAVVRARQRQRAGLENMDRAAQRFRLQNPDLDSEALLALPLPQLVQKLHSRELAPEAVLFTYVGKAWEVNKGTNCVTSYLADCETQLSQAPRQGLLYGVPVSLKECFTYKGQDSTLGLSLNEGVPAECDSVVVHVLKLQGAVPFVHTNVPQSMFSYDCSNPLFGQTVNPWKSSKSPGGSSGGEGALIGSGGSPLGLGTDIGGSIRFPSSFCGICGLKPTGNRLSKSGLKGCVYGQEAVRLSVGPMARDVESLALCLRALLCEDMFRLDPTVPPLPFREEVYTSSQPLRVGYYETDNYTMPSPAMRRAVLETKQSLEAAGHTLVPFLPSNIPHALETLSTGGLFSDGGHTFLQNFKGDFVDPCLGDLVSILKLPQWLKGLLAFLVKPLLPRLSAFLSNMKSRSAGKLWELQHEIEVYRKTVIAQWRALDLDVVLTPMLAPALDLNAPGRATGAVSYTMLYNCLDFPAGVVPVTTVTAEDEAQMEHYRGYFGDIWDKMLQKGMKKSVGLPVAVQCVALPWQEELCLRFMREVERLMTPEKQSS

SMILES	IC50 [2, 5]	A: degree to which MAGL enzymatic activity returned following washout of test compounds [3]	B: % MAGL activity returning after washout [3]	IC50 [4, 6]	other results
O=C(c1ccc(F)cc1OC1CC1)N1CC2(CC(n3nc(-c4ccccc4C(F)(F)F)cc3C(F)(F)F)C2)C1 (single isomer, unassigned) [Compound 451, (2-cyclopropoxy-4-fluorophenyl)(6-{5-(trifluoromethyl)-3-[o-(trifluoromethyl)phenyl]-1-pyrazolyl}-2-aza-2-spiro[3.3]heptyl)methanone]	–	–	–	–	AUClast ([1]; 5 mg/kg): 1.20422 µg·h/mL; Cmax ([1]; 5 mg/kg): 271.39 ng/g
Cc1cnn(C2CC3(C2)CN(C(=O)c2cc(O)ccc2F)C3)c1-c1cc(F)ccc1F (single isomer, unassigned) [Compound 476, (6-(5-(2,5-Difluorophenyl)-4-methyl-1H-pyrazol-1-yl)-2-azaspiro [3.3]heptan-2-yl) (2-fluoro-5-hydroxyphenyl) methanone]	–	–	–	–	IC50 ([2]; Method 13: Reaction Biology MAGL enzyme, 12 nM, read-out: MAGL Potency (Detection Method)): 0.05 to 0.15 µM; AUClast ([1]; 5 mg/kg): 0.22364 µg·h/mL; Cmax ([1]; 5 mg/kg): 72 ng/g
Cc1cc(C2CC3(C2)CN(C(=O)c2cc(O)ccc2F)C3)n(-c2ccccc2C)n1 [Compound 74, (2-fluoro-5-hydroxyphenyl)(6-(3-methyl-1-(o-tolyl)-1H-pyrazol-5-yl)-2-azaspiro[3.3]heptan-2-yl)methanone]	–	–	–	–	AUC(0-t) ([1]; male, C57BL/6, mouse, 30 mg/kg, Protocol A): 0.117 µg·h/mL; Cmax ([1]; male, C57BL/6, mouse, 30 mg/kg, Protocol A, read-out: Cmax): 102 ng/g
Cc1cc(C2CC3(C2)CN(C(=O)c2ccccc2F)C3)n(-c2ccccc2C)n1 [Compound 122, (2-fluorophenyl)(6-(3-methyl-1-(o-tolyl)-1H-pyrazol-5-yl)-2-azaspiro[3.3]heptan-2-yl)methanone]	–	–	–	> 10 µM	IC50 [2, 7]: 1 to 5.1 µM
COc1ccc(F)c(C(=O)N2CC3(CC(c4cc(C)nn4-c4ccccc4C)C3)C2)c1 [Compound 123]	–	–	–	> 10 µM	IC50 ([2]; Method 2: Cayman Chemical MAGL enzyme, 10 nM, read-out: Potency (MAGL inhibition)): > 10 µM
Cc1cc(C2CC3(C2)CN(C(=O)c2cccc(O)c2)C3)n(-c2ccccc2C)n1 [Compound 125, (3-hydroxyphenyl)(6-(3-methyl-1-(o-tolyl)-1H-pyrazol-5-yl)-2-azaspiro[3.3]heptan-2-yl)methanone]	–	–	–	> 10 µM	IC50 ([2]; Methods 1, 2, read-out: MAGL Potency (Detection Method)): 0.05 to 0.15 µM
Cc1cc(C2CC3(C2)CN(C(=O)c2c(F)ccc(O)c2F)C3)n(-c2ccccc2C)n1 [Compound 127, (2,6-difluoro-3-hydroxyphenyl)(6-(3-methyl-1-(o-tolyl)-1H-pyrazol-5-yl)-2-azaspiro[3.3]heptan-2-yl)methanone]	–	–	–	> 10 µM	IC50 [2, 7]: 1 to 5.1 µM
O=C(Oc1ccc([N+](=O)[O-])cc1)N1CCC(C(O)(c2ccc3c(c2)OCO3)c2ccc3c(c2)OCO3)CC1 [JZL-184, reference compound]	–	complete lack of return of MAGL enzymatic activity after washout	<1%	–	–

Continued, in another order:

IC50 [2, 5]	A: degree to which MAGL enzymatic activity returned following washout of test compounds [3]	B: % MAGL activity returning after washout [3]	IC50 [4, 6]	SMILES	other results
0.05 to 0.15 µM	155	>50%	–	Cc1cnn(C2CC3(C2)CN(C(=O)c2cc(O)ccc2F)C3)c1-c1cc(F)ccc1Cl (single isomer, unassigned) [Compound 519, (6-(5-(2-chloro-5-fluorophenyl)-4-methyl-1H-pyrazol-1-yl)-2-azaspiro [3.3]heptan-2-yl) (2-fluoro-5-hydroxyphenyl) methanone]	–
–	–	–	> 10 µM	Cc1ccccc1-n1nc(C2CC3(C2)CN(C(=O)c2cc(O)ccc2F)C3)cc1C [Compound 117]	–
< 0.05 µM	41	<50%	–	O=C(c1cc(O)ccc1F)N1CC2(CC(n3cc(C(F)(F)F)c(-c4ccccc4F)n3)C2)C1 [Compound 473, (2-fluoro-5-hydroxyphenyl){6-[3-(o-fluorophenyl)-4-(trifluoromethyl)-1-pyrazolyl]-2-aza-2-spiro[3.3]heptyl}methanone]	IC50 [4, 8]: > 10 µM
< 0.05 µM	47	<50%	–	O=C(c1cc(O)ccc1F)N1CC2(CC(n3cc(C4CC4)c(-c4ccccc4F)n3)C2)C1 [Compound 493, {6-[4-cyclopropyl-3-(o-fluorophenyl)-1-pyrazolyl]-2-aza-2-spiro[3.3]heptyl}(2-fluoro-5-hydroxyphenyl)methanone]	IC50 [4, 8]: > 10 µM
< 0.05 µM	100	>50%	–	Cc1cn(C2CC3(C2)CN(C(=O)c2cc(O)ccc2F)C3)nc1-c1cc(F)ccc1Cl [Compound 520, {6-[3-(2-chloro-5-fluorophenyl)-4-methyl-1-pyrazolyl]-2-aza-2-spiro[3.3]heptyl}(2-fluoro-5-hydroxyphenyl)methanone]	–
< 0.05 µM	–	–	–	O=C(c1cc(O)ccc1F)N1CC2(CC(n3ccc(-c4ccccc4C(F)(F)F)n3)C2)C1 [Compound 525, (2-fluoro-5-hydroxyphenyl)(6-{3-[o-(trifluoromethyl)phenyl]-1-pyrazolyl}-2-aza-2-spiro[3.3]heptyl)methanone]	–
